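1) Cells in 96-well plates. 2) Compound, 48 h, 5 concentrations. 3) Linear interpolation between surrounding doses. 4) Unreached endpoint = highest concentration. GI50: concentration for 50% inhibition of growth.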 Active and inactive are the calls of the source. Cut-off read from the data, not from the text of the source: active = GI50 up to about 1.1 µM and inactive = higher.
Legend:
Experiment in all cases: inhibition of tumour cell growth, NCI panel, 48 h
A498 = system: A498
A549 = system: A549
BT-549 = system: BT-549
DU-145 = system: DU-145
IGROV-1 = system: IGROV-1
LOX IMVI = system: LOX IMVI
M14 = system: M14
MCF7 = system: MCF7
MDA-MB-231 = system: MDA-MB-231
NCI-H522 = system: NCI-H522
OVCAR-5 = system: OVCAR-5
PC-3 = system: PC-3
RXF 393 = system: RXF 393
SK-OV-3 = system: SK-OV-3
T47D = system: T47D
TK-10 = system: TK-10
U-251 = system: U-251
UACC-62 = system: UACC-62
SNB-75 = system: SNB-75
HOP-62 = system: HOP-62

Compound	GI50 (A498)	GI50 (A549)	GI50 (BT-549)	GI50 (DU-145)	GI50 (IGROV-1)	GI50 (LOX IMVI)	GI50 (M14)	GI50 (MCF7)	GI50 (MDA-MB-231)	GI50 (NCI-H522)	GI50 (OVCAR-5)	GI50 (PC-3)	GI50 (RXF 393)	GI50 (SK-OV-3)	GI50 (T47D)	GI50 (TK-10)	GI50 (U-251)	GI50 (UACC-62)	GI50 (SNB-75)	GI50 (HOP-62)
N#CC(NCCc1ccccc1)c1ccc(C(C#N)NCCc2ccccc2)cc1 (centres undefined)	> 100 µM (inactive)	> 100 µM (inactive)	20.5 µM (inactive)	> 100 µM (inactive)	> 100 µM (inactive)	45.1 µM (inactive)	70.6 µM (inactive)	55.5 µM (inactive)	> 100 µM (inactive)	> 100 µM (inactive)	> 100 µM (inactive)	> 100 µM (inactive)	> 100 µM (inactive)	> 100 µM (inactive)	> 100 µM (inactive)	> 100 µM (inactive)	8.17 µM (inactive)	> 100 µM (inactive)		
CSC1=C(C(=O)Nc2ccccc2)C(N)=NC1=O	56.2 µM (inactive)	> 100 µM (inactive)	> 100 µM (inactive)	> 100 µM (inactive)		> 100 µM (inactive)		89.7 µM (inactive)	> 100 µM (inactive)	11.3 µM (inactive)		> 100 µM (inactive)	79.3 µM (inactive)	> 100 µM (inactive)	92.7 µM (inactive)	> 100 µM (inactive)	> 100 µM (inactive)	62.8 µM (inactive)	> 100 µM (inactive)	
CC(=O)c1cccc(NC(=O)C(=O)C(c2cnc3ccc([N+](=O)[O-])cc3n2)[N+](=O)[O-])c1 (centres undefined)	> 100 µM (inactive)		53 µM (inactive)	> 100 µM (inactive)	> 100 µM (inactive)	> 100 µM (inactive)	69 µM (inactive)	> 100 µM (inactive)	> 100 µM (inactive)		> 100 µM (inactive)	42.9 µM (inactive)	96.6 µM (inactive)	> 100 µM (inactive)	> 100 µM (inactive)	> 100 µM (inactive)	> 100 µM (inactive)	> 100 µM (inactive)	> 100 µM (inactive)	> 100 µM (inactive)
COc1ccc2c(c1)CCN1CCc3ccccc3CC21 (centres undefined)	30 µM (inactive)	49.7 µM (inactive)	34 µM (inactive)	65.2 µM (inactive)	56.5 µM (inactive)	24 µM (inactive)	18.2 µM (inactive)	60.8 µM (inactive)	52.2 µM (inactive)	67.3 µM (inactive)	30.3 µM (inactive)	30 µM (inactive)		64.6 µM (inactive)	43.7 µM (inactive)	35.7 µM (inactive)	34.7 µM (inactive)	32.3 µM (inactive)	30.2 µM (inactive)	72.8 µM (inactive)
CC[C@@]1(O)C(=O)OCc2c1cc1n(c2=O)Cc2c-1nc1ccccc1c2/C=N\NC(=O)C(N)Cc1c[nH]cn1 (some centres undefined)	0.857 µM (active)	0.452 µM (active)	3.45 µM (inactive)	0.181 µM (active)	3.75 µM (inactive)	0.131 µM (active)	0.324 µM (active)	0.0885 µM (active)	3.4 µM (inactive)	0.372 µM (active)	3.56 µM (inactive)	0.644 µM (active)	0.861 µM (active)	0.234 µM (active)	0.158 µM (active)	13.3 µM (inactive)	0.0776 µM (active)	0.0723 µM (active)	0.067 µM (active)	0.0524 µM (active)
O=C(Nc1nnc(-c2ccccc2)o1)C(SC(=S)N1CCCCC1)c1ccccc1 (centres undefined)	27.3 µM (inactive)	17.1 µM (inactive)	14 µM (inactive)	17.2 µM (inactive)	15.9 µM (inactive)	4.16 µM (inactive)	12.6 µM (inactive)	23.4 µM (inactive)	38.5 µM (inactive)	23.5 µM (inactive)	26.6 µM (inactive)	17.5 µM (inactive)	26.3 µM (inactive)	28.4 µM (inactive)	31.2 µM (inactive)	56 µM (inactive)	14.4 µM (inactive)		30.4 µM (inactive)	18.3 µM (inactive)
COc1cc2ccccc2oc1=O	> 100 µM (inactive)	> 100 µM (inactive)	19.8 µM (inactive)	> 100 µM (inactive)	> 100 µM (inactive)	> 100 µM (inactive)	81.7 µM (inactive)	54.8 µM (inactive)	> 100 µM (inactive)	32.6 µM (inactive)	> 100 µM (inactive)	> 100 µM (inactive)	0.33 µM (active)		1.85 µM (inactive)	77.6 µM (inactive)	> 100 µM (inactive)	24 µM (inactive)	57.3 µM (inactive)	59.8 µM (inactive)
COc1cccc2c1C(=N)c1c(O)c3c(c(O)c1C2=O)C[C@@](O)(C(C)=O)C[C@@H]3OC1CC(N)C(O)C(C)O1 (some centres undefined)	3 µM (inactive)	0.00832 µM (active)	< 0.01 µM (active)	0.00386 µM (active)	1.38 µM (inactive)	0.00638 µM (active)	0.00957 µM (active)	0.805 µM (active)	< 0.01 µM (active)	0.163 µM (active)	0.000445 µM (active)	< 0.01 µM (active)	1.23 µM (inactive)	0.43 µM (active)	0.0047 µM (active)	1.31 µM (inactive)	0.000228 µM (active)	0.0094 µM (active)	0.00764 µM (active)	0.125 µM (active)
